The text below walks through data of patent US20090191177A1, “Enantiomerically Pure (-) 2-[1-(7-methyl-2-(morpholin-4-yl)-4-oxo-4H-pyrido[1,2-A]pyrimidin-9-yl)ethylamino]benzoic Acid, Its Use In Medical Therapy, And A Pharmaceutical Composition Comprising It - 026” (priority 2008, published 2009).

pIC50: −log10 of the molar value.

This assay deals with washed platelets. Description: Washed Platelet Aggregation (WPA), CD9 antibody-induced. Type of assay: cell-based. The settings on record: washed platelets from healthy volunteers, aggregation induced by mouse anti-human CD9 antibody. The protocol: Blood was collected from healthy volunteers by venipuncture using a Venflon needle 1.5*45 mm (17 GA, 1.77 IN). The first 2 ml of blood was discarded prior to collecting aliquotes into tubes containing acid citrate dextrose (ACD). One volume of ACD is required for six volumes of blood.
The anticoagulated blood was centrifuged for 15 min at 240×g to obtain platelet rich plasma (PRP). PRP was transferred to a new tube and centrifuged for 15 min at 2200×g. The supernatant was discarded and the platelet pellet re-suspended to […] in Tyrodes buffer (TB) containing 1 μM hirudin and 0.02 U/mL apyrase. The platelet suspension was left to rest at room temperature for 30 min. Just prior to time for assay, CaCl2 was added to a final concentration of 2 mM. The Compound, or wortmannin, was dissolved in DMSO and added to a 96 well plate prior to the addition of the washed platelet suspension. The platelet suspension was preincubated with inhibitor for 5 min. Light absorption at 650 nm was recorded before and after a 5 min plate shake and referred to as recording 0 (R0) and R1. A mouse anti-human CD9 antibody was added (at a donor specific concentration) to each well prior to next 10 min plate shake and light absorption recording; R2.
A concentration response for CD9 antibody-induced aggregation in the absence or presence of 1 μM wortmannin (complete PI3K inhibition) was performed in each washed platelet suspension prior to testing of the Compound. The CD9 antibody concentration with the largest dependence of PI3K inhibition was chosen for the test.
Light absorbance in wells with TB were subtracted from all readings before percent aggregation was calculated according the formula: [(R1−R2)/R1]×100=% aggregation. Spontaneous aggregation or pro-aggregatory effect of the inhibitor was evaluated by the same formula, [(R0−R1)/R0]×100=% aggregation.

Turning to `Cc1cc(C(C)Nc2ccccc2C(=O)O)c2nc(N3CCOCC3)cc(=O)n2c1` (racemic) [WO2004016607, 2-[1-(7-Methyl-2-(morpholin-4-yl)-4-oxo-4H-pyrido[1,2-α]pyrimidin-9-yl)ethylamino]benzoic acid, reference compound], the pIC50 (usually the negative decadic logarithm of the IC50, by convention in mol/L) (Homo sapiens, Platelet) was 8.00.

`Cc1cc(C(C)Nc2ccccc2C(=O)O)c2nc(N3CCOCC3)cc(=O)n2c1` (single isomer, unassigned; (+)) [Ex. 2, (+) 2-[1-(7-Methyl-2-(morpholin-4-yl)-4-oxo-4H-pyrido[1,2-a]pyrimidin-9-yl)ethylamino]benzoic acid] showed a pIC50 of 5.78. On the same count and under the same terms, then `Cc1cc(C(C)Nc2ccccc2C(=O)O)c2nc(N3CCOCC3)cc(=O)n2c1` (single isomer, unassigned; (-)) [Ex. 1, (−) 2-[1-(7-Methyl-2-(morpholin-4-yl)-4-oxo-4H-pyrido[1,2-a]pyrimidin-9-yl)ethylamino]benzoic acid], with 8.22.
